According to publication PMC9405102, “Targeted Modification and Structure-Activity Study of GL-29, an Analogue of the Antimicrobial Peptide Palustrin-2ISb” (Antibiotics, 2022):
Read-outs that look alike come from different tables or passages of the source. Where no end group is shown, it is not given here.

What was measured:
[1] = test system: E. faecalis (NCTC 12697); assay type: cell-based, Enterococcus faecalis; details: NCTC 12697
Method: (§1) The antimicrobial activity of the peptides was determined through the minimum inhibitory concentrations (MICs) and the minimum bactericidal concentration (MBCs) using the broth-dilution method in a 96-well plate, as described in the previous study. Six bacteria, including the Gram-positive bacteria, S. aureus (ATCC CRM 6538), MRSA (ATCC CRM 12493) and E. faecalis (NCTC 12697), the Gram-negative bacteria, E. coli (ATCC CRM 8739), K. pneumoniae (ATCC CRM 43816) and P. aeruginosa (ATCC CRM 9027), the yeast, C. albicans (ATCC CRM 10231) and clinical isolates, S. aureus (B042 V2E1 A), MRSA (B038 V1S1 A), E. coli (ATCC BAA-2340) and K. pneumoniae (ATCC BAA-1705) were used in these assays to evaluate the antimicrobial potency of the two peptides by determining their MICs and MBCs. All bacteria were cultured in MHB and the yeast, C. albicans was cultured in YPD broth overnight. Then, the microorganisms were sub-cultured and diluted to the final concentration of 2 × 10^5 CFU/mL to 5 × 10^5 CFU/mL. The Norfloxacin and amphotericin B were used as positive controls for the bacteria and yeast, respectively. The assay was repeated three times, with five replicates at each time.

[2] = test system: P. aeruginosa (ATCC CRM 9027); assay type: cell-based, Pseudomonas aeruginosa; details: ATCC CRM 9027
Method: as §1

[3] = test system: C. albicans (ATCC CRM 10231); assay type: cell-based, Candida albicans; details: ATCC CRM 10231
Method: as §1

[4] = test system: S. aureus (ATCC CRM 6538); assay type: cell-based, Staphylococcus aureus; details: ATCC CRM 6538
Method: as §1

[5] = test system: S. aureus (B042 V2E1 A); assay type: cell-based, Staphylococcus aureus; details: B042 V2E1 A
Method: as §1

[6] = test system: MRSA (ATCC CRM 12493); assay type: cell-based, methicillin-resistant S. aureus; details: ATCC CRM 12493
Method: as §1

[7] = test system: MRSA (B038 V1S1 A); assay type: cell-based, methicillin-resistant S. aureus; details: B038 V1S1 A
Method: as §1

[8] = test system: E. coli (ATCC BAA-2340); assay type: cell-based, Escherichia coli; details: ATCC BAA-2340
Method: as §1

[9] = test system: E. coli (ATCC CRM 8739); assay type: cell-based, Escherichia coli; details: ATCC CRM 8739
Method: as §1

[10] = test system: K. pneumoniae (ATCC BAA-1705); assay type: cell-based, Klebsiella pneumoniae; details: ATCC BAA-1705
Method: as §1

[11] = test system: K. pneumoniae (ATCC CRM 43816); assay type: cell-based, Klebsiella pneumoniae; details: ATCC CRM 43816
Method: as §1

[12] = test system: horse erythrocytes; assay type: cell-based
Method: The haemolysis assays were performed by incubating prewashed erythrocyte suspension obtained from fresh defibrinated horse blood (TCS Biosciences Ltd., Buckingham, UK) with a range of peptides at final concentrations from 512 to 1 μM, for 2 h at 37 °C. The red cell suspensions were washed with phosphate-buffered saline (PBS) until the supernatant was clear and then diluted with PBS to form a 2% cell suspension. Peptides were 2-fold diluted by the 2% cell suspension to reach the final concentration range from 512 to 1 μM. The haemolysis of the cell suspensions with either 1% (v/v) Triton X-100 or PBS, were considered as positive controls and negative controls, respectively. After incubation, the extent of haemolysis was determined by measuring the absorbance of the supernatant from each sample at 570 nm with a Synergy HT plate reader (BioTek, USA).
Data were analysed using Prism (Version 8.2.1; GraphPad Software, Inc, San Diego, CA, USA). Error bars in the graphs represented standard errors of means (SEM) of nine repeats from three independent tests. The statistical significance was calculated using two-way ANOVA and is indicated as ns (non-significant difference), * (p < 0.05), ** (p < 0.01), *** (p < 0.001), ****(p < 0.0001). The HC10, HC50 and IC50 values were calculated using the online tool AAT Bioquest (https://www.aatbio.com/index.html, accessed on 6 May 2022).

[13] = test system: S. aureus (ATCC CRM 6538); assay type: cell-based, Staphylococcus aureus; details: ATCC CRM 6538, 24 h
Method: (§2) The MBIC and MBEC assays were performed to measure the inhibition and eradication of bacterial biofilm in the presence of different concentrations of peptides. Gram-positive bacteria were inoculated in Luria–Bertani (LB) broth at 37 °C overnight whereas Gram-negative bacteria were inoculated in tryptic soy broth (TSB), and then sub-cultured until reaching the logarithmic growth phase by measuring the OD values at a wavelength of 550nm. For the MBIC assay, 99 µL of diluted bacterial suspension (5 × 10^5 CFU/mL) was mixed with 1 µL of prepared peptide solutions in the wells of a round-bottomed 96-well plate, achieving the final concentrations from 512 to 1 µM, and then incubated at 37 °C for 24 h in a shaking incubator at 200 revolutions per minute (rpm). After this, the plate was washed twice by PBS and fixed with methanol for 30 min. For MBEC assay, 100 µL of diluted bacterial suspension (5 × 10^5 CFU/mL) was seeded into a round-bottomed 96-well plate and incubated at 37 °C for 24 h in a shaking incubator at 200 rpm to obtain mature biofilm. After this, plates were washed twice by PBS and incubated with different concentrations of peptide solution from 512 to 1 µM at 37 °C for 24 h. Afterwards, the plate was washed twice with PBS and fixed with methanol for 30 min. Then, both MBIC and MBEC plates were stained by 130 μL of 0.1% (g/v) crystal violet solutions for 30 min and washed with PBS until no apparent staining was observed. Evaporating crystal violet stains were dissolved by 33% (v/v) acetic acid, and the absorbance values were measured by a Synergy HT Microplate Reader (BioTek, Minneapolis, MN, USA) set to 595 nm. The minimum concentration that inhibited the formation of biofilm was defined when compared to the negative control group, as the MBIC. The minimum concentration that eradicated the biofilm was defined, when compared to the negative control group, as the MBEC. The biofilm assays were performed in triplicate.

[14] = test system: E. faecalis (NCTC 12697); assay type: cell-based, Enterococcus faecalis; details: NCTC 12697, 24 h
Method: as §2

[15] = test system: MRSA (ATCC CRM 12493); assay type: cell-based, methicillin-resistant S. aureus; details: ATCC CRM 12493, 24 h
Method: as §2

[16] = test system: E. coli (ATCC CRM 8739); assay type: cell-based, Escherichia coli; details: ATCC CRM 8739, 24 h
Method: as §2

[17] = test system: K. pneumoniae (ATCC CRM 43816); assay type: cell-based, Klebsiella pneumoniae; details: ATCC CRM 43816, 24 h
Method: as §2

[18] = test system: P. aeruginosa (ATCC CRM 9027); assay type: cell-based, Pseudomonas aeruginosa; details: ATCC CRM 9027, 24 h
Method: as §2

Row | Substance | MBC [1] [µM] | MIC [1] [µM] | MBC [2] [µM] | MIC [2] [µM] | MBC [3] [µM] | MIC [3] [µM] | MBC [4] [µM] | MIC [4] [µM] | MBC [5] [µM] | MIC [5] [µM] | MBC [6] [µM] | MIC [6] [µM] | MBC [7] [µM] | MIC [7] [µM] | MBC [8] [µM] | MIC [8] [µM] | MBC [9] [µM] | MIC [9] [µM] | MBC [10] [µM] | MIC [10] [µM] | also measured
1 | FVNVLDKIR-NH2 [FV-9, FVNVLDKIR-NH2] | >512 | >512 | >512 | >512 | >512 | >512 | >512 | >512 | >512 | >512 | >512 | >512 | >512 | >512 | >512 | >512 | >512 | >512 | >512 | >512 | MBC [11]: >512 µM; MIC [11]: >512 µM; HC10 [12]: 504.21 µM; HC10 ([12]; red cells of horse, 2 h): 504.2 µM; MBEC [13]: >512 µM; MBIC [13]: >512 µM; MBEC [14]: >512 µM; MBIC [14]: >512 µM; MBEC [15]: >512 µM; MBIC [15]: >512 µM; MBEC [16]: >512 µM; MBIC [16]: >512 µM; MBEC [17]: >512 µM; MBIC [17]: >512 µM; MBEC [18]: >512 µM; MBIC [18]: >512 µM
2 | FVNVLDKI-NH2 [FV-8, FVNVLDKI-NH2] | >512 | >512 | >512 | >512 | >512 | >512 | >512 | >512 | >512 | >512 | >512 | >512 | >512 | >512 | >512 | >512 | >512 | >512 | >512 | >512 | MBC [11]: >512 µM; MIC [11]: >512 µM; HC10 [12]: 504.21 µM; HC10 ([12]; red cells of horse, 2 h): 583.6 µM; MBEC [13]: >512 µM; MBIC [13]: >512 µM; MBEC [14]: >512 µM; MBIC [14]: >512 µM; MBEC [15]: >512 µM; MBIC [15]: >512 µM; MBEC [16]: >512 µM; MBIC [16]: >512 µM; MBEC [17]: >512 µM; MBIC [17]: >512 µM; MBEC [18]: >512 µM; MBIC [18]: >512 µM
